Assay results taken from patent US20230287217A1, “Zwitterionic Cell-Permeant and Water-Soluble Rhodamine Dyes for Quantitative Imaging Applications” (OREGON HEALTH & SCIENCE UNIVERSITY, priority 2020, published 2023).

Tests used:
[1] = UV-Vis absorption and fluorescence spectroscopy (spectral properties in aqueous media / PBS buffer); assay type: physicochemical; set-up: Brightness: unit not given here; details: for Brightness / Stokes Shift (nm) / FWHMabs (nm) / λabs (nm) / FWHem (nm) / λem (nm) / ε (M^-1 cm-1) / ϕ: aqueous media; for FWHMabs (nm): absorption band width; for λabs (nm): absorption maximum; for FWHem (nm): emission band width; for λem (nm): emission maximum; for ε (M^-1 cm-1): extinction coefficient from Beer's Law plots; for ϕ: relative quantum yield, TMR and SiTMR as reference
Experimental: UV-Vis and fluorescence spectra were collected on a SpectraMax M5 spectrometer with a Microplate reader (Molecular Devices, Sunnyvale, CA). All absorbance spectra were reference corrected. Extinction coefficient was calculated from Beer’s Law plots of absorbance versus concentration. Relative quantum yields are reported using TMR and SiTMR as reference.

[2] = Absorption and fluorescence stability against solvent polarity changes (dioxane 20-80% in DI water); assay type: physicochemical; details: compared with base fluorophores TMR and SiTMR (SiR)
Text: FIG. 2D graphs normalized absorption (left) and fluorescence spectra (right) of fluorophores with varied percentages of dioxane (20-80%) in DI water resulting the polarity of the screening solvent systems changing in a gradient manner.
A. general rhodamine fluorophore structures including the classic TMR, SiTMR, and the sulfonated versions. […] This structural change results because the carboxylate anion attacks the central carbon forming a spirolactone, which is both colorless and non-fluorescent. […] C. […] This change in both absorbance and fluorescence intensity was alleviated using our sulfonated versions.

Structure (SMILES)	Brightness [1]	Stokes Shift (nm) [1]	FWHMabs (nm) [1]	λabs (nm) [1]	FWHem (nm) [1]	λem (nm) [1]	ε (M^-1 cm-1) [1]	ϕ [1]	stability of absorbance and fluorescence intensity against solvent polarity changes [2]	brightness compared with the base fluorophore SiTMR ([1]; PBS buffer)
Cc1cc(C(=O)O)ccc1-c1c2cc/c(=[N+](/C)CCCS(=O)(=O)[O-])cc-2oc2cc(N(C)C)ccc12 [OF550COOH, (E)((9-(4-carboxy-2-methylphenyl)-6-(dimethylamino)-3H-xanthenylidene)(methyl)ammonio)propane-1-sulfonate]	78	24 nm	33 nm	554 nm	42 nm	578 nm	112,600 M^-1 cm-1	0.69		
C#Cc1cccc(Nc2ncnc3ccc(NC(=O)CCNC(=O)c4ccc(-c5c6cc/c(=[N+](/C)CCCS(=O)(=O)[O-])cc-6oc6cc(N(C)C)ccc56)c(C)c4)cc23)c1 [OF550Erl(T), (E)((6-(dimethylamino)-9-(4-((3-((4-((3-ethynylphenyl)amino)quinazolin-6-yl)amino)oxopropyl)carbamoyl)-2-methylphenyl)-3H-xanthenylidene)(methyl)ammonio)propane-1-sulfonate]	7	17 nm	80 nm	566 nm	47 nm	583 nm	24,500 M^-1 cm-1	0.28		
Cc1cc(C(=O)NCCCn2cc(-c3cccc(Nc4ncnc5ccccc45)c3)nn2)ccc1-c1c2cc/c(=[N+](/C)CCCS(=O)(=O)[O-])cc-2oc2cc(N(C)C)ccc12 [OF550Erl(UnT), (E)((6-(dimethylamino)-9-(2-methyl-4-((3-(4-(3-(quinazolin-4-ylamino)phenyl)-1H-1,2,3-triazol-1-yl)propyl)carbamoyl)phenyl)-3H-xanthenylidene)(methyl)ammonio)propane-1-sulfonate]	35	25 nm	35 nm	560 nm	44 nm	585 nm	50,200 M^-1 cm-1	0.69		
Cc1cc(C(=O)NCCOCCOCCCCCCCl)ccc1-c1c2cc/c(=[N+](/C)CCCS(=O)(=O)[O-])cc-2oc2cc(N(C)C)ccc12 [OF550HALO, (E)((9-(4-((2-(2-((6-chlorohexyl)oxy)ethoxy)ethyl)carbamoyl)-2-methylphenyl)-6-(dimethylamino)-3H-xanthenylidene)(methyl)ammonio)propane-1-sulfonate]	53	25 nm	34 nm	556 nm	42 nm	581 nm	97,200 M^-1 cm-1	0.55		
Cc1cc(C(=O)NCc2ccc(COc3nc(N)nc4[nH]cnc34)cc2)ccc1-c1c2cc/c(=[N+](/C)CCCS(=O)(=O)[O-])cc-2oc2cc(N(C)C)ccc12 [OF550SNAP, (E)((9-(4-((4-(((2-amino-9H-purin-6-yl)oxy)methyl)benzyl)carbamoyl)-2-methylphenyl)-6-(dimethylamino)-3H-xanthenylidene)(methyl)ammonio)propane-1-sulfonate]	21	24 nm	38 nm	556 nm	43 nm	580 nm	59,500 M^-1 cm-1	0.36		
Cc1ccccc1-c1c2cc/c(=[N+](/C)CCCS(=O)(=O)[O-])cc-2oc2cc(N(C)C)ccc12 [OF550]	59	23 nm	33 nm	552 nm	40 nm	575 nm	97,300 M^-1 cm-1	0.61	substantially improved stability	
Cc1cc(C(=O)[O-])ccc1C1=C2C=C/C(=[N+](/C)CCCS(=O)(=O)O)C=C2[Si](C)(C)c2cc(N(C)C)ccc21 [OF650COOH, (E)-3-((10-(4-carboxy-2-methylphenyl)-7-(dimethylamino)-5,5-dimethyldibenzo[b,e]silin-3(5H)-ylidene)(methyl)ammonio)propane-1-sulfonate]	82	22 nm	34 nm	650 nm	42 nm	672 nm	200,600 M^-1 cm-1	0.41		
C#Cc1cccc(Nc2ncnc3ccc(NC(=O)CCNC(=O)c4ccc(C5=C6C=C/C(=[N+](/C)CCCS(=O)(=O)[O-])C=C6[Si](C)(C)c6cc(N(C)C)ccc65)c(C)c4)cc23)c1 [OF650Erl(T)]	7	17 nm	38 nm	656 nm	41 nm	673 nm	43,400 M^-1 cm-1	0.16		
Cc1ccccc1C1=C2C=C/C(=[N+](/C)CCCS(=O)(=O)[O-])C=C2[Si](C)(C)c2cc(N(C)C)ccc21 [OF650]	55	19 nm	33 nm	649 nm	40 nm	668 nm	125,500 M^-1 cm-1	0.44	substantially improved stability	five time greater
CN(C)c1ccc2c(c1)[Si](C)(C)C1=CC(=[N+](C)C)C=CC1=C2c1cc(C(=O)O)ccc1C(=O)[O-] [SiRCOOH, 4-carboxy-2-(7-(dimethylamino)-3-(dimethyliminio)-5,5-dimethyl-3,5-dihydrodibenzo[b,e]silin-10-yl)benzoate]	29	22 nm	39 nm	645 nm	42 nm	667 nm	64,700 M^-1 cm-1	0.45		
C#Cc1cccc(Nc2ncnc3ccc(NC(=O)CCNC(=O)c4ccc(C(=O)[O-])c(C5=C6C=CC(=[N+](C)C)C=C6[Si](C)(C)c6cc(N(C)C)ccc65)c4)cc23)c1 [SiRErl(T)]	5	22 nm	42 nm	656 nm	53 nm	678 nm	34,800 M^-1 cm-1	0.13		
CN(C)c1ccc2c(c1)[Si](C)(C)C1=CC(=[N+](C)C)C=CC1=C2c1cc(C(=O)NCCCn2cc(-c3cccc(Nc4ncnc5ccccc45)c3)nn2)ccc1C(=O)[O-] [SiRErl(UnT)]	5	16 nm	38 nm	654 nm	43 nm	670 nm	24,100 M^-1 cm-1	0.19		
CN(C)c1ccc2c(c1)[Si](C)(C)C1=CC(=[N+](C)C)C=CC1=C2c1cc(C(=O)NCCOCCOCCCCCCCl)ccc1C(=O)[O-] [SiRHALO]	3	18 nm	45 nm	646 nm	45 nm	664 nm	11,100 M^-1 cm-1	0.25		
CN(C)c1ccc2c(-c3cc(C(=O)O)ccc3C(=O)[O-])c3ccc(=[N+](C)C)cc-3oc2c1 [TMRCOOH, 4-carboxy-2-(6-(dimethylamino)-3-(dimethyliminio)-3H-xanthen-9-yl)benzoate]	49	26 nm	42 nm	550 nm	44 nm	576 nm	83,800 M^-1 cm-1	0.58		
C#Cc1cccc(Nc2ncnc3ccc(NC(=O)CCNC(=O)c4ccc(C(=O)[O-])c(-c5c6ccc(=[N+](C)C)cc-6oc6cc(N(C)C)ccc56)c4)cc23)c1 [TMRErl(T)]	21	24 nm	39 nm	563 nm	42 nm	587 nm	33,100 M^-1 cm-1	0.62		
CN(C)c1ccc2c(-c3cc(C(=O)NCCCn4cc(-c5cccc(Nc6ncnc7ccccc67)c5)nn4)ccc3C(=O)[O-])c3ccc(=[N+](C)C)cc-3oc2c1 [TMRErl(UnT)]	7	26 nm	44 nm	559 nm	43 nm	585 nm	18,700 M^-1 cm-1	0.37		
CN(C)c1ccc2c(-c3cc(C(=O)NCc4ccc(COc5nc(N)nc6[nH]cnc56)cc4)ccc3C(=O)[O-])c3ccc(=[N+](C)C)cc-3oc2c1 [TMRSNAP]	11	24 nm	58 nm	553 nm	45 nm	577 nm	27,700 M^-1 cm-1	0.41		
CN(C)c1ccc2c(-c3ccccc3C(=O)[O-])c3ccc(=[N+](C)C)cc-3oc2c1 [TMR]	33	25 nm	38 nm	549 nm	42 nm	574 nm	60,900 M^-1 cm-1	0.54		
